Experimental data reported in patent US20240166669A1, “QUINAZOLINE AMINE DERIVATIVES AS KRAS INHIBITORS” (Nikang Therapeutics, Inc., priority 2021, published 2024).

biological target: T1, K-Ras G12D (Homo sapiens, UniProt P01116, G12D); test: p-ERK Cellular 2-Plate Assay (Biological Example 2); type: cell-based; conditions: AGS cells (KRAS G12D), 3 h treatment, AlphaLISA p-ERK1/2, 2-plate; Biological Example 2 (unmarked values); read-out: AGS PERK EC50
T1 construct: AGS (Cobioer, CBP60476) cell lines which harbor KRAS G12D mutation; host or cells: AGS
Experimental: (§1) The ability of the compound of Formula (IIA′), (II′), or (II) or a pharmaceutically acceptable salt thereof (test compound) to inhibit K-Ras G12D activity was tested using AGS (Cobioer, CBP60476) cell lines which harbor KRAS G12D mutation as described below.
(§2) AGS (Cobioer, CBP60476) were seeded in 384-well plates and cultured overnight (10.000 cells per well 40 μl total volume). The following morning, cells were treated with test compound, with staring concentration at 10 μM and 3-fold dilution down to 0.5 nM for 3 h at 37° C., DMSO treatment served as control. p-ERK was then measured using AlphaLISA SureFire Ultra p-ERK1/2 (Thr202/Tyr204) Assay Kit (Perkin Elmer, cat #ALSU-PERK) following the manufacturer's instruction as follows.
Briefly, the culture medium was removed and 20 μl 1× lysis buffer was added to each well, followed by 30 minutes incubation on a plate shaker at room temperature. Then 10 μl of lysate was transferred to a white 384-well plate. Acceptor mixture was prepared according to manufacturer's instruction. 5 μl acceptor mixture was added to the cell lysate and the plate was wrapped with foil, spun at 500 rpm for 10 s, and incubated at RT for 60 min. Donor mixture was prepared under subdued light. 5 μl donor mixture was added to the cell lysate and the plate was spun at 500 rpm for 10s and incubated at RT for another 60 min. in the dark. Signal was then measured on a EnVision 2105 multimode plate reader. Percentage inhibition was calculated with DMSO treatment as 100% of signal, and IC50 was calculated by XLfit 5.5.x.

T1 sequence (P01116 1-188 isoform P01116-2 G12D): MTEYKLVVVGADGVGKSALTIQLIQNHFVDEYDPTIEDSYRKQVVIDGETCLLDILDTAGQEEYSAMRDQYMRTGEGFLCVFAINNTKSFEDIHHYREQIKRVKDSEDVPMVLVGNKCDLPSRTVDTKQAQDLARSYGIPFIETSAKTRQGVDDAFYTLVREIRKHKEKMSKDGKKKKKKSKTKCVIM

| EC50 [nM] | SMILES |
| --- | --- |
| 0.2 | C#Cc1cccc2cc(O)cc(-c3ncc4c(N5C[C@H]6CC[C@@H](C5)N6)nc(OCC56CCCN5CC(=C)C6)nc4c3F)c12 (stereo partly drawn) [Example 1, 4-(4-((1R,5S)-3,8-diazabicyclo[3.2.1]octan-3-yl)-8-fluoro-2-((2-methylene-tetrahydro-1H-pyrrolizin-7a(5H)-yl)methoxy)pyrido[4,3-d]pyrimidin-7-yl)-5-ethynyl-naphthalen-2-ol] |
| 1.4 | C#Cc1cccc2cc(O)cc(-c3ncc4c(N5C[C@H]6CC[C@@H](C5)N6)nc(OCC56CCCN5Cc5c(COC)cccc56)nc4c3F)c12 (stereo partly drawn) [Example 33, 4-(4-((1R,5S)-3,8-diazabicyclo-[3.2.1]octan-3-yl)-8-fluoro-2-((6-(methoxymethyl)-2,3-dihydro-1H-pyrrolo[2,1-a]isoindol-9b(5H)-yl)methoxy)-pyrido[4,3-d]pyrimidin-7-yl)-5-ethynylnaphthalen-2-ol] |
| 1.5 | C#Cc1cccc2cc(O)cc(-c3ncc4c(N5C[C@H]6CC[C@@H](C5)N6)nc(OCC56CCCN5CC(=CC(F)F)C6)nc4c3F)c12 (stereo partly drawn) [Example 3, 4-(4-((1R,5S)-3,8-diazabicyclo[3.2.1]octan-3-yl)-2-((2-(2,2-difluoroethylidene)-tetrahydro-1H-pyrrolizin-7a(5H)-yl)methoxy)-8-fluoropyrido[4,3-d]pyrimidin-7-yl)-5-ethynylnaphthalen-2-ol] |
| 253 | C#Cc1cccc2cc(O)cc(-c3ncc4c(N5CC6NC(C5)C5CC65)nc(OCC56CCCN5CCC6)nc4c3F)c12 (stereo not shown) [Example 9, 5-ethynyl-4-(8-fluoro-2-((tetrahydro-1H-pyrrolizin-7a(5H)-yl)methoxy)-4-(7,9-diazatricyclo[3.3.1.02,4]nonan-7-yl)pyrido[4,3-d]pyrimidin-7-yl)naphthalen-2-ol] |
| > 100 | C#Cc1c(F)ccc2cc(O)cc(-c3ncc4c(N5C[C@H]6CC[C@@H](C5)N6)nc(OC[C@@]56CC7COc8ccccc8C7N5C[C@@H](F)C6)nc4c3F)c12 (stereo partly drawn) [Example 41, 4-(4-((1R,5S)-3,8-diazabicyclo[3.2.1]octan-3-yl)-8-fluoro-2-(((9S)-9-fluoro-6a,9,10,11a-tetrahydro-6H,7H-chromeno[3,4-b]pyrrolizin-7a(8H)-yl)methoxy)pyrido[4,3-d]pyrimidin-7-yl)-5-ethynyl-6-fluoronaphthalen-2-ol] |

biological target: T1, K-Ras G12D; test: p-ERK Cellular 1-Plate Assay (Biological Example 3); type: cell-based; conditions: AGS cells (KRAS G12D), 3 h treatment, AlphaLISA p-ERK1/2, 1-plate; Biological Example 3 (values marked *); read-out: AGS PERK EC50
Experimental: as §1
as §2, with “overnight (5,000” for “overnight (10.000”, “per well,” for “per well”, “with starting” for “with staring”, “at […].” for “at 37° C.,”, “control. pERK” for “control. p-ERK”, “Ultra p-ERK/2” for “Ultra p-ERK1/2”
Briefly, the culture medium was removed and 10 μl 1× lysis buffer was added to each well, followed by 10 minutes incubation on a plate shaker at room temperature. Acceptor mixture was prepared according to manufacturer's instruction. 5 μl acceptor mixture was added to the cell lysate and the plate was wrapped with foil, spun at 500 rpm for 10s and incubated at RT for 60 min. Donor mixture was prepared under subdued light. 5 μl donor mixture was added to the cell lysate and the plate was spun at 500 rpm for 10s and incubated at RT for another 60 min. in the dark.

| EC50 [nM] | SMILES |
| --- | --- |
| 213 | C#Cc1c(F)ccc2cccc(-c3ncc4c(N5C[C@H]6CC[C@@H](C5)N6)nc(OCC56CCCN5CC(=C)CC6)nc4c3F)c12 (stereo partly drawn) [Example 50, 4-((1R,5S)-3,8-diazabicyclo[3.2.1]octan-3-yl)-7-(8-ethynyl-7-fluoronaphthalen-1-yl)-8-fluoro-2-((6-methylenehexahydroindolizin-8a(1H)-yl)methoxy)-pyrido[4,3-d]pyrimidine] |
| 5.3 | C#Cc1c(F)ccc2cc(O)cc(-c3ncc4c(N5C[C@H]6CC[C@@H](C5)N6)nc(OC[C@@H]5CC(=C)CN5C)nc4c3F)c12 [Example 46, 4-(4-((1R,5S)-3,8-diazabicyclo[3.2.1]octan-3-yl)-8-fluoro-2-(((S)-1-methyl-4-methylenepyrrolidin-2-yl)methoxy)pyrido[4,3-d]pyrimidin-7-yl)-5-ethynyl-6-fluoronaphthalen-2-ol] |
| > 100 | C#Cc1c(F)ccc2cccc(-c3ncc4c(N5C[C@H]6CC[C@@H](C5)N6)nc(OCC56CCCCCN5CC(=C)C6)nc4c3F)c12 (stereo partly drawn) [Example 52, 4-((1R,5S)-3,8-diazabicyclo[3.2.1]octan-3-yl)-7-(8-ethynyl-7-fluoronaphthalen-1-yl)-8-fluoro-2-((2-methylenehexahydro-1H-pyrrolo[1,2-a]azepin-9a(5H)-yl)methoxy)pyrido[4,3-d]pyrimidine] |
| > 100 | C#Cc1c(F)ccc2cc(O)cc(-c3ncc4c(N5C[C@H]6CC[C@@H](C5)N6)nc(OCC56CCCCCN5CC(=C)C6)nc4c3F)c12 (stereo partly drawn) [Example 44, 4-(4-((1R,5S)-3,8-diazabicyclo[3.2.1]octan-3-yl)-8-fluoro-2-((2-methylenehexahydro-1H-pyrrolo[1,2-a]azepin-9a(5H)-yl)methoxy)pyrido[4,3-d]pyrimidin-7-yl)-5-ethynyl-6-fluoronaphthalen-2-ol] |
| 18 | C#Cc1c(F)ccc2cc(O)cc(-c3ncc4c(N5C[C@H]6CC[C@@H](C5)N6)nc(OCC56CCCCN5CC(=C)C6)nc4c3F)c12 (stereo partly drawn) [Example 43, 4-(4-((1R,5S)-3,8-diazabicyclo[3.2.1]octan-3-yl)-8-fluoro-2-((2-methylenehexahydroindolizin-8a(1H)-yl)methoxy)pyrido[4,3-d]pyrimidin-7-yl)-5-ethynyl-6-fluoronaphthalen-2-ol] |
| 52 | C#Cc1c(F)ccc2cccc(-c3ncc4c(N5C[C@H]6CC[C@@H](C5)N6)nc(OCC56CC(=C)CN5CC(=C)C6)nc4c3F)c12 [Example 47, 4-((1R,5S)-3,8-diazabicyclo[3.2.1]octan-3-yl)-2-((2,6-dimethylenetetrahydro-1H-pyrrolizin-7a(5H)-yl)methoxy)-7-(8-ethynyl-7-fluoronaphthalen-1-yl)-8-fluoropyrido[4,3-d]pyrimidine] |
| 836 | C#Cc1c(F)ccc2cccc(-c3ncc4c(N5C[C@H]6CC[C@@H](C5)N6)nc(OCC56CCCCN5CC(=C)C6)nc4c3F)c12 (stereo partly drawn) [Example 51, 4-((1R,5S)-3,8-diazabicyclo[3.2.1]octan-3-yl)-7-(8-ethynyl-7-fluoronaphthalen-1-yl)-8-fluoro-2-((2-methylenehexahydroindolizin-8a(1H)-yl)methoxy)pyrido[4,3-d]pyrimidine] |
| 1.4 | C#Cc1c(F)ccc2cc(O)cc(-c3ncc4c(N5C[C@H]6CC[C@H](N6)C5C)nc(OCC56CCCN5CC(=C)C6)nc4c3F)c12 (stereo partly drawn) [Example 54, 5-ethynyl-6-fluoro-4-(8-fluoro-4-((1S,5R)-2-methyl-3,8-diazabicyclo[3.2.1]octan-3-yl)-2-((2-methylene-tetrahydro-1H-pyrrolizin-7a(5H)-yl)methoxy)-pyrido[4,3-d]pyrimidin-7-yl)naphthalen-2-ol] |
